Laboratory results published in PubChem BioAssay (NCI).
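These data come from cells grown in 96-well plates and exposed to compound for 48 hours at five concentrations. The concentration for 50% growth inhibition is given as GI50. Definition used: TGI = concentration required for complete inhibition of growth.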

tested on: MCF7 breast; experiment: DTP human tumour cell line panel, 48 h

| Compound | GI50 | TGI |
| --- | --- | --- |
| C=CC(=O)N1CCN(c2ncnc3c(F)c(-c4c(O)cccc4F)c(Cl)cc23)CC1 | 9.68 µM | 29.3 µM |
| O=C1c2ccccc2-c2c1c1ccccc1c(=O)n2CCNCCCNCCn1c2c(c3ccccc3c1=O)C(=O)c1ccccc1-2 | 0.0885 µM |  |
| C=C1C(=O)O[C@H]2[C@H]1CC/C(COC(=O)c1cc3cc(OC)ccc3[nH]1)=C\CC[C@@]1(C)O[C@@H]21 | 0.341 µM | 1.74 µM |
| COC(=O)c1c(O)ccc2[nH]c(C)c(C#N)c12 | 46.3 µM | > 100 µM |
| COC(=O)NC/C=C\c1nc(CC/C=C\C(=O)OC2CC3CC(=O)O[C@@H](/C=C/CC(C)C)C[C@@H]4CCC(C)C(C[C@@H](OC)CC(C2)O3)O4)co1 (some centres not stated) | < 0.01 µM | > 100 µM |

tested on: UO-31 renal; experiment: DTP human tumour cell line panel, 48 h

| Compound | TGI | GI50 |
| --- | --- | --- |
| CN(C)C(=S)/N=c1\ss/c(=N\S(=O)(=O)c2ccccc2)n1-c1ccccc1 | > 100 µM |  |
| COc1cc2c3c(n(CCCN4CCC(N)CC4)c(=O)c2cc1OC)-c1cc2c(cc1C3=O)OCO2 | 16.5 µM | 2.32 µM |
| C=C(C)[C@@H]1CC[C@@]2(C(=O)O)CC[C@]3(C)C(CCC4[C@@]5(C)CCC(OS(=O)(=O)c6ccccc6)C(C)(C)C5CC[C@]43C)C12 (some centres not stated) | 15.9 µM | 2.79 µM |
| O=C(N/N=C/c1ccc(Cl)cc1Cl)c1ccccc1Nc1cccc(C(F)(F)F)c1 | 22.1 µM | 3.14 µM |
| N#Cc1c(N)c(C(=O)O)nn(-c2cccc(C(F)(F)F)c2)c1=O | > 100 µM |  |
| CCOC(=O)Cc1nc(/C(C#N)=C/c2ccco2)[nH]c(=O)c1C#N | > 100 µM |  |
| CC1=Nc2c(ccc3c2C(=O)c2ccccc2C3=O)NC(c2ccncc2)C1 (configuration not stated) | > 100 µM |  |
| COc1cc(/C=C\c2ccc(O)cc2)cc(OC)c1OC | > 36.6 µM |  |
| C=C(COC(C)=O)CC(/C=C(\C)CCC=C(C)C)OC(C)=O (configuration not stated) | > 100 µM |  |
| Cc1ccsc1C(=S)Nc1ccc(Cl)c(C(=O)OC(C(C)C)C(C)C)c1 | > 100 µM |  |
| CC1(C)CCc2cc3c(cc2O1)OCCC3=O | > 100 µM |  |
| COc1ccc(-c2cc(-c3cc(Cl)ccc3Cl)nc3nc(=S)[nH]c(N)c23)cc1 | > 100 µM | 58.1 µM |
| Oc1c2c(c(O)c3ccccc13)=N[C@@H](c1ccccc1)[C@H](c1ccccc1)N=2 | > 100 µM |  |
| c1cc[c]([Sn]([S]c2cccc3cccnc23)([c]2ccccc2)[c]2ccccc2)cc1 | 0.145 µM | 0.0511 µM |
| O=C1CCn2c([nH]c3cccc4cccc2c43)=N1 | > 100 µM |  |
| C=C1CC(COc2cc(Cl)nc(N)n2)C1 |  | 35.6 µM |
| CCOc1cccc2nc3cccc(C(=O)NCCN(C)C)c3nc12 | > 100 µM |  |
| Cc1cc(C)nc(NS(=O)(=O)c2ccc(Nc3c4ccccc4nc4c(C(=O)N5CCN(CCOS(C)(=O)=O)CC5)ccc(Cl)c34)cc2)n1 | > 100 µM |  |
| Clc1cc(Cl)c2c(Cl)cc(Cl)c3c2c1N=S=N3 | > 100 µM |  |
| C=CC(=O)N1CCN(c2ncnc3c(F)c(-c4c(O)cccc4F)c(Cl)cc23)CC1 | 29 µM | 14.7 µM |

| Compound | TGI | GI50 |
| --- | --- | --- |
| CN1CCN(C)C1c1cccc(C2N(C)CCN2C)c1 | > 100 µM |  |
| CC(=O)OCCOCBr | > 100 µM |  |
| O=C1c2ccccc2-c2c1c1ccccc1c(=O)n2CCNCCCNCCn1c2c(c3ccccc3c1=O)C(=O)c1ccccc1-2 | 1 µM | 0.221 µM |
| CC(O)CN1C(=O)NC(Cc2ccccc2)C1=O (configuration not stated) | > 100 µM |  |
| O=C(c1ccccc1)[C@H]1Nc2cnccc2C2c3ccccc3CC21 (some centres not stated) | > 40.4 µM |  |
| COc1ccc(C(=O)C(C(=O)CCC(=O)Nc2cccc(C(F)(F)F)c2)c2ccccc2)cc1 (configuration not stated) | > 100 µM |  |
| NC1=NC(=O)C(CC(=O)Nc2ccc([N+](=O)[O-])cc2[N+](=O)[O-])S1 (configuration not stated) | > 100 µM |  |
| O=C1c2ccccc2-c2cccc3ccc(Cc4ccccc4)c1c23 | > 100 µM |  |
| COC(=O)/C(=N\NC(=S)NN)C(C(=O)C(=O)Nc1ccccc1C(N)=O)c1nc2ccccc2[nH]c1=O (configuration not stated) | > 100 µM |  |
| CC/C=C\C/C=C\C1CC(=O)NCCCNCCCCN1 (configuration not stated) | > 100 µM |  |
| CC1CCCC(C(=O)/C(=C/c2cccc(Cl)c2)C(=O)C(=O)O)C1 (configuration not stated) | > 100 µM |  |
| CC(=O)c1c(C)n([O-])c2cc(C)c(C)cc2[n+]1=O | > 100 µM |  |
| C=C1C(=O)O[C@H]2[C@H]1CC/C(COC(=O)c1cc3cc(OC)ccc3[nH]1)=C\CC[C@@]1(C)O[C@@H]21 | 2.37 µM | 1.12 µM |
| CCCS(=O)(=O)c1nc(NC2CC2)cc(-c2ccc3c(ccn3C3CC(C)(C)NC(C)(C)C3)c2)n1 | 3.16 µM | 1.6 µM |
| N#CC(C#N)=Cc1cccc(Oc2ccccc2)c1 | 30.8 µM |  |
| COc1ccc(/C=C/C(=O)c2sc(-n3nc(-c4ccccc4)cc3-c3ccccc3)nc2C)cc1OC | > 100 µM |  |
| COC(=O)c1c(O)ccc2[nH]c(C)c(C#N)c12 | > 100 µM | 33.9 µM |
| NC(CCSCC(F)F)C(=O)O (configuration not stated) | > 100 µM |  |
| COC(=O)NC/C=C\c1nc(CC/C=C\C(=O)OC2CC3CC(=O)O[C@@H](/C=C/CC(C)C)C[C@@H]4CCC(C)C(C[C@@H](OC)CC(C2)O3)O4)co1 (some centres not stated) | 74.7 µM | 2.46 µM |
| CC1(C)OC(=O)C=C([O-])O1.CC1(C)OC(=O)C=C([O-])O1.O=c1c(O)c(-c2ccc([O-])cc2[O-])oc2cc(O)cc(O)c12.[Ti+4] | 90.5 µM |  |

tested on: RPMI-8226 leukemia; experiment: DTP human tumour cell line panel, 48 h

| Compound | TGI | GI50 |
| --- | --- | --- |
| CN(C)C(=S)/N=c1\ss/c(=N\S(=O)(=O)c2ccccc2)n1-c1ccccc1 | > 100 µM |  |
| COc1cc2c3c(n(CCCN4CCC(N)CC4)c(=O)c2cc1OC)-c1cc2c(cc1C3=O)OCO2 | 1.02 µM | 0.202 µM |
| C=C(C)[C@@H]1CC[C@@]2(C(=O)O)CC[C@]3(C)C(CCC4[C@@]5(C)CCC(OS(=O)(=O)c6ccccc6)C(C)(C)C5CC[C@]43C)C12 (some centres not stated) | > 100 µM | 1.69 µM |
| O=C(N/N=C/c1ccc(Cl)cc1Cl)c1ccccc1Nc1cccc(C(F)(F)F)c1 | 46.3 µM | 2.87 µM |
| N#Cc1c(N)c(C(=O)O)nn(-c2cccc(C(F)(F)F)c2)c1=O | > 100 µM |  |
| CCOC(=O)Cc1nc(/C(C#N)=C/c2ccco2)[nH]c(=O)c1C#N | > 100 µM |  |
| CC1=Nc2c(ccc3c2C(=O)c2ccccc2C3=O)NC(c2ccncc2)C1 (configuration not stated) | > 100 µM | 89.9 µM |
| COc1cc(/C=C\c2ccc(O)cc2)cc(OC)c1OC | 35.3 µM |  |
| Cc1ccsc1C(=S)Nc1ccc(Cl)c(C(=O)OC(C(C)C)C(C)C)c1 | 45.1 µM |  |
| CC1(C)CCc2cc3c(cc2O1)OCCC3=O | > 100 µM |  |
| COc1ccc(-c2cc(-c3cc(Cl)ccc3Cl)nc3nc(=S)[nH]c(N)c23)cc1 | > 100 µM | 14.3 µM |
| Oc1c2c(c(O)c3ccccc13)=N[C@@H](c1ccccc1)[C@H](c1ccccc1)N=2 | > 100 µM |  |
| O=C1CCn2c([nH]c3cccc4cccc2c43)=N1 | > 100 µM |  |
| C=C1CC(COc2cc(Cl)nc(N)n2)C1 | 60.8 µM | 21.7 µM |
| CCOc1cccc2nc3cccc(C(=O)NCCN(C)C)c3nc12 | 6.46 µM |  |
| Cc1cc(C)nc(NS(=O)(=O)c2ccc(Nc3c4ccccc4nc4c(C(=O)N5CCN(CCOS(C)(=O)=O)CC5)ccc(Cl)c34)cc2)n1 | > 100 µM |  |

| Compound | TGI | GI50 |
| --- | --- | --- |
| Clc1cc(Cl)c2c(Cl)cc(Cl)c3c2c1N=S=N3 | > 100 µM |  |
| C=CC(=O)N1CCN(c2ncnc3c(F)c(-c4c(O)cccc4F)c(Cl)cc23)CC1 | 36.6 µM | 5.69 µM |
| CN1CCN(C)C1c1cccc(C2N(C)CCN2C)c1 | > 100 µM |  |
| CC(=O)OCCOCBr | > 100 µM |  |
| O=C1c2ccccc2-c2c1c1ccccc1c(=O)n2CCNCCCNCCn1c2c(c3ccccc3c1=O)C(=O)c1ccccc1-2 | 0.259 µM | 0.00933 µM |
| O=C(c1ccccc1)[C@H]1Nc2cnccc2C2c3ccccc3CC21 (some centres not stated) | 34.4 µM |  |
| COc1ccc(C(=O)C(C(=O)CCC(=O)Nc2cccc(C(F)(F)F)c2)c2ccccc2)cc1 (configuration not stated) | > 100 µM |  |
| NC1=NC(=O)C(CC(=O)Nc2ccc([N+](=O)[O-])cc2[N+](=O)[O-])S1 (configuration not stated) | > 100 µM |  |
| O=C1c2ccccc2-c2cccc3ccc(Cc4ccccc4)c1c23 | > 100 µM |  |
| COC(=O)/C(=N\NC(=S)NN)C(C(=O)C(=O)Nc1ccccc1C(N)=O)c1nc2ccccc2[nH]c1=O (configuration not stated) | > 100 µM |  |
| CC1CCCC(C(=O)/C(=C/c2cccc(Cl)c2)C(=O)C(=O)O)C1 (configuration not stated) | 38 µM |  |
| CC(=O)c1c(C)n([O-])c2cc(C)c(C)cc2[n+]1=O | > 100 µM |  |
| C=C1C(=O)O[C@H]2[C@H]1CC/C(COC(=O)c1cc3cc(OC)ccc3[nH]1)=C\CC[C@@]1(C)O[C@@H]21 | 3.87 µM | 0.509 µM |
| CCCS(=O)(=O)c1nc(NC2CC2)cc(-c2ccc3c(ccn3C3CC(C)(C)NC(C)(C)C3)c2)n1 | 5.27 µM | 2 µM |
| N#CC(C#N)=Cc1cccc(Oc2ccccc2)c1 | 62.5 µM |  |
| COc1ccc(/C=C/C(=O)c2sc(-n3nc(-c4ccccc4)cc3-c3ccccc3)nc2C)cc1OC | 70 µM |  |
